Assay [1] concerns the target T1, human adenosine A3 receptors (Homo sapiens, UniProt P0DMS8).
T1 construct: expressed in transfected cells; host or cells: Chinese hamster ovary (CHO) cells with CRE/SPAP/HYG reporter
T1 sequence (P0DMS8 1-318): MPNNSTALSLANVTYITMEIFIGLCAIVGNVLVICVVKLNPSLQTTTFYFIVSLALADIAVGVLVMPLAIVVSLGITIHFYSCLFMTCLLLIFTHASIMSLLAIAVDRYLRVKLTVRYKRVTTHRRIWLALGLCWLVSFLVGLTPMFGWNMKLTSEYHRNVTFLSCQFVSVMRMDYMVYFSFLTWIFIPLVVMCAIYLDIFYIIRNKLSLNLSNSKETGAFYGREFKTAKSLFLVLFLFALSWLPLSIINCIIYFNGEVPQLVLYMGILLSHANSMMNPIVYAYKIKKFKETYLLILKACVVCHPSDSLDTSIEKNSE
The assay is described as follows: Reporter gene experiments in CHO cells (CRE/SPAP, inhibition of forskolin-stimulated SPAP production). The format is cell-based. The conditions noted are these: ECR = equipotent concentration ratio relative to NECA = 1; agonist potency, CHO CRE/SPAP reporter gene assay. The source says:
The compounds useful in the invention are agonists at the adenosine A1 receptor. Preferably they are selective agonists at the adenosine A1 receptor. By selective is meant that the affinity for the A1 receptor is at least 2 times, preferably 5 times and more preferably 10 times greater than the other adenosine receptor subtypes, particularly A3. Agonist selectivity of compounds against other human adenosine receptors can be determined using Chinese hamster ovary (CHO) cells transfected with the gene for the relevant human adenosine receptor following a method based on that of Castanon, K V. and Spevak, W. (1994) Biochem. Biophys. Res. Commun. 198, 626-631. The CHO cells are also transfected with cyclic AMP response elements promoting the gene for secreted placental alkaline phosphatase (SPAP) (Wood, K V. (1995) Cuff. Opinion. Biotechnology, 6, 50-58). The effect of test compounds is determined by their effects on basal levels of cAMP (A2a) or on forskolin-enhanced cAMP (A1 and A3) as reflected by changes in levels of SPAP. EC50 values for compounds are determined as a ratio to that of the non-selective agonist N-ethyl carboxamidoadenosine (NECA). “Adenosine receptors: New opportunities for future drugs” (S. A. Poulsen et al, Bioorg. Med. Chem,. 1998, 6, 619-641) summarises disease conditions that may be treated with adenosine A1 agonists.
Reporter Gene Experiments in CHO cells
Agonist activity at human adenosine A3 receptors was measured in Chinese hamster ovary (CHO) cells containing the CRE/SPAP/HYG (CRE=cyclic AMP response element; HYG=hygromycin resistance; SPAP=secreted placental alkaline phosphatase) reporter gene elements, which upon stimulation of cAMP levels produced SPAP. A cell line was used which was stably transfected with the human adenosine A3 receptor in addition to the above elements. Cells were plated out in 96-well plates in culture medium and incubated at 37° C. for 1 hour. For measurement of potency, agonists were added to the appropriate wells at a concentration range of approximately 10^−10-10^−5M. 15 Min later, cAMP levels were stimulated by addition of a maximal concentration of forskolin. All cells were then incubated for a further 5 hours at 37° C., and cooled to room temperature, after which a substrate for the phosphatase (para-nitrophenol phosphate, pNPP), which is converted by SPAP to a coloured reagent) was then added and the 96-well plates were read in a plate reader. From these readings, the concentration-dependence of the inhibition by the agonist for forskolin-stimulated SPAP production can be calculated. As with the yeast assays, one of the agonists tested on each 96-well plate was the standard non-selective agonist, N-ethylcarboxamidoadenosine (NECA), and the potency of all test agonists is expressed relative to that of the NECA standard.
(In general: A reporter such as luciferase makes a cellular process visible.)

The target in assay [2] is T2, human adenosine A1 receptors (Homo sapiens, UniProt P30542).
T2 construct: expressed in transfected cells
T2 sequence (P30542 1-326): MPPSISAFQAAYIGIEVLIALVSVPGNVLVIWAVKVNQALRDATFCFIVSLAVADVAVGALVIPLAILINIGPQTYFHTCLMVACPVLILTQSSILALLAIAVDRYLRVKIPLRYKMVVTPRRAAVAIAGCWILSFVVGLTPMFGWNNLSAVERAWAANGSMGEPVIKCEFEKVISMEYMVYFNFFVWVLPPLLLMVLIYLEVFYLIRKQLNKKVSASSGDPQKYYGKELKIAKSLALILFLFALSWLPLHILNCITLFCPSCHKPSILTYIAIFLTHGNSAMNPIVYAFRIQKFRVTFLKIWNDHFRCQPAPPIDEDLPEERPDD
Description: Reporter gene experiments in yeast (agonist activity, β-galactosidase/FDG readout). It counts as cell-based. More on the design: key: equipotent concentration ratio relative to NECA = 1. The conditions noted are these: ECR = equipotent concentration ratio relative to NECA = 1; agonist potency, yeast reporter gene assay. As to the method:
Reporter Gene Experiments in Yeast
Agonist activity at human adenosine A1 receptors was measured in yeast cell lines expressing the adenosine A1 receptor together with a chimeric G-protein which linked receptor stimulation to the expression of the enzyme β-galactosidase. Cells were plated out in 96-well plates in culture medium to which was added 2 mM 3-AT (3-aminotriazole) to limit basal growth in the absence of agonist stimulation, and FDG (fluorescein di-β-D-galactopyranoside) as substrate for β-galactosidase, which converts FDG to fluorescein. For measurement of potency, agonists were added to the appropriate wells at a concentration range of approximately 10^−10-10^−5M and incubated at 30° C. for 18 hours. At this point the amount of fluorescein generated was measured in a spectrophotometer. From these readings, the concentration-dependence of the stimulation by the agonist can be calculated. One of the agonists tested on each 96-well plate was the standard non-selective agonist, N-ethylcarboxamidoadenosine (NECA), and the potency of all test agonists is expressed relative to that of the NECA standard.
(ECR=equipotent concentration ratio relative to NECA=1)

With `C#C[C@H]1O[C@@H](n2cnc3c(N[C@@H]4CCC[C@]4(OC)c4ccccc4)ncnc32)[C@H](O)[C@@H]1O` (relative stereo) [Example 9, (2R,3R,4S,6R)-5-Ethynyl-2-(6-{[(1R*,2S*)-2-methoxy-2-phenylcyclopentyl]amino}-9H-purin-9-yl)tetrahydrofuran-3,4-diol], the “Adenosine A3 receptor ECR*” value in assay [1] was more than 165. Further, the “Adenosine A1 receptor ECR*” value in assay [2] is given as 23.81.
On to “(2R,3R,4S,5R)-2-[6-(cyclobutylamino)-9H-purin-9-yl]-5-ethynyltetrahydrofuran-3,4-diol [Example 5]”, for which, in assay [1], the “Adenosine A3 receptor ECR*” value is given as more than 196. In addition, the “Adenosine A1 receptor ECR*” value in assay [2] worked out at 3.
Take `C#C[C@H]1O[C@@H](n2cnc3c(Nc4ccc(F)cc4C)ncnc32)[C@H](O)[C@@H]1O` [Example 36, (2R,3R,4S,5R)-5-Ethynyl-2-{6-[(4-fluoro-2-methylphenyl)amino]-9H-purin-9-yl}tetrahydrofuran-3,4-diol]: the “Adenosine A3 receptor ECR*” value in assay [1] is given as more than 1117. The “Adenosine A1 receptor ECR*” value in assay [2] came out at 7.15.
Take `C#C[C@H]1O[C@@H](n2cnc3c(NC4CCN(C(=O)OCC)CC4)ncnc32)[C@H](O)[C@@H]1O` [Example 2, Ethyl 4-({9-[(2R,3R,4S,5R)-5-ethynyl-3,4-dihydroxytetrahydrofuran-2-yl]-9H-purin-6-yl}amino)piperidine-1-carboxylate]: the “Adenosine A3 receptor ECR*” value in assay [1] was more than 3580. Besides, the “Adenosine A1 receptor ECR*” value in assay [2] stood at 10.
For `C#C[C@H]1O[C@@H](n2cnc3c(Nc4cc(Cl)ccc4C)ncnc32)[C@H](O)[C@@H]1O` [Example 40, (2R,3R,4S,5R)-2-{6-[(5-chloro-2-methylphenyl)amino]-9H-purin-9-yl}-5-ethynyltetrahydrofuran-3,4-diol], in that order: more than 505 and 16.94.
For `C#C[C@H]1O[C@@H](n2cnc3c(NC4CCCCC4)ncnc32)[C@H](O)[C@@H]1O` [Example 7, (2R,3R,4S,5R)-2-[6-(Cyclohexylamino)-9H-purin-9-yl]-5-ethynyltetrahydrofuran-3,4-diol], in that order: more than 178 and 11.4.
As to `C#C[C@H]1O[C@@H](n2cnc3c(N[C@H]4CCC[C@@H]4O)ncnc32)[C@H](O)[C@@H]1O` [Example 3, (2R,3R,4S,5R)-5-Ethynyl-2-(6-{[(1S,2S)-2-hydroxycyclopentyl]amino}-9H-purin-9-yl)tetrahydrofuran-3,4-diol], the “Adenosine A3 receptor ECR*” value in assay [1] is listed as more than 823. Also, the “Adenosine A1 receptor ECR*” value in assay [2] came to 6.48.
Regarding `C#C[C@H]1O[C@@H](n2cnc3c(Nc4ccc(F)c(F)c4)ncnc32)[C@H](O)[C@@H]1O` [Example 43, (2R,3R,4S,5R)-2-{6-[(3,4-Difluorophenyl)amino]-9H-purin-9-yl}-5-ethynyltetrahydrofuran-3,4-diol], in assay [1], the “Adenosine A3 receptor ECR*” value is more than 188. For the same compound, the “Adenosine A1 receptor ECR*” value in assay [2] was found to be 34.9.
For `C#C[C@H]1O[C@@H](n2cnc3c(Nc4ccc(Cl)cc4F)ncnc32)[C@H](O)[C@@H]1O` [Example 33, (2R,3R,4S,5R)-2-{6-[(4-Chloro-2-fluorophenyl)amino]-9H-purin-9-yl}-5-ethynyltetrahydrofuran-3,4-diol], in that order: more than 215 and 26.31.

The record behind these values is patent US20040162422A1, “Chemical compounds” (priority 2001, published 2004).
